In US11795195B2, “Antibody-drug conjugates including hemiasterlin derivative” (Sumitomo Pharma Co., Ltd., priority 2017, dated 2023):

Columns and labels:
Karpas-299 cells [1] = assay: Cellular Toxicity Test (1), CellTiter-Glo cell viability; assay type: cell-based, human; details: for IC50: Homo sapiens, 96 h, cultured 4 days, cell viability
Procedure: Karpas-299 cells (European Collection of Authenticated Cell Cultures, hereinafter, ECACC), which are human lymphoma cell lines, were cultured in RPMI 1640 (GIBCO) containing 10% fetal bovine serum (MP Biomedicals) (hereinafter, referred to as the “culture medium”). Cells were prepared to be 2×10^6 cells/mL in the culture medium, and were added to a 96 well microplate for cell culturing in an amount of 50 μL for each well. Compounds of Examples or Comparative Example compound 4 times diluted with the culture medium in 8 stages were added to the microplate in an amount of 50 μL for each well. These were cultured at 37 degree under 5% CO2 for 4 days. After culturing, the microplate was taken out from the incubator, and was left at rest at room temperature for 10 minutes. To each well, 50 μL of CellTiter-Glo Luminescent Cell Viability Assay (Promega) was added, and the resultant mixture was stirred. This mixture was incubated at a dark place for 20 minutes. Using a microplate luminometer, luminescence at each well was measured, thereby calculating the cell viability. In addition, from the value of cell viability, the IC50 value was calculated.
The IC50 value was calculated by the following formula: IC50 (nM)=antilog(LOG10(a/b)×(e−d)/(c−d)+LOG10b) a: concentration a of test substance b: concentration b of test substance c: cell viability upon adding test substance with concentration a d: cell viability upon adding test substance with concentration b e: intermediate value between maximum and minimum among cell viabilities upon adding test substances with different concentrations (a and b are concentrations crossing the cell viability e, and a>b is indicated).
The cell viability at each concentration was calculated by the following formula: Cell Viability (%)=a′/b′×100 a′: mean value of luminescence amount of wells to which test substance was added (n=6) b′: mean value of luminescence amount of wells to which test substance was not added (n=6) (n represents the number of evaluations performed per test substance concentration).

SK-BR-3 cells = assay: Cellular Toxicity Test (2), CellTiter-Glo cell viability; assay type: cell-based, human; details: for IC50: Homo sapiens, 72 h, cultured 3 days, cell viability
Procedure: SK-BR-3 cells (ATCC), which are human breast cancer cell line, were cultured in McCoy's 5A (GIBCO) containing 10% fetal bovine serum (MP Biomedicals) (hereinafter, referred to as the “culture medium” in this test). SK-BR-3 cells were prepared to be 2×10^6 cells/mL in the culture medium, added to a 96 well microplate for cell culturing in an amount of 50 μL for each well, and cultured at 37 degree under 5% CO2 overnight, and then, compounds of Examples or Comparative Example compound 4 times diluted with the culture medium in 8 stages were added to the microplate in an amount of 50 μL for each well. These were cultured at 37 degree under 5% CO2 for 3 days. After culturing, the microplate was taken out from the incubator, and was left at rest at room temperature for 10 minutes. 50 μL of CellTiter-Glo Luminescent Cell Viability Assay (Promega) was added to each well, and the resultant mixture was stirred. This mixture was incubated at a dark place for 20 minutes. Using a microplate luminometer, luminescence at each well was measured, thereby calculating the cell viability. The IC50 value was calculated in accordance with the method described in Test Example 1.

[2] = Membrane Permeability Test, parallel artificial membrane permeability assay (PAMPA); assay type: in vitro ADME; details: pH 7.4, pH7.4, 37° C., read-out: Pe (pH7.4)
Procedure: By the parallel artificial membrane permeability assay (PAMPA), the membrane permeability of compounds of Examples was examined as follows: To the donor plate, System solution (pION inc.) and GIT Lipid-0 (pION inc.) were added in an amount of 200 μL and 4 μL for each well, respectively. To the acceptor plate, Acceptor Sink Buffer (pION inc.) was added in an amount of 200 μL. Both plates were superposed and incubated at 37° C. for 4 hours, and then, UVs in the solutions on the side of acceptor and on the side of donor were measured with an UV plate reader (190 to 500 nm). Compounds with poor UV absorption were measured by LC-MS. The permeability coefficient Pe (10^−6 cm/sec) of the drug was calculated by the following formula.
[formula] • ra=(VD/VA)Pa^(A-D)/Pa^(D-A)=rVPe^(A-D)/Pa^(D-A) • rV=(VD/VA) • VD=volume of doner well • VA=volume of acceptor well • t=permeation time • τ^SS=steady state time • R=retention • CD=CA=concentration in donor and acceptor well

Karpas-299 cells [3] = assay: Cellular Toxicity Test (1) for ADCs; assay type: cell-based, human; details: Karpas-299 (CD30 antigen-positive, HER2 antigen-negative cell line), 4 days
Procedure: Karpas-299 cells (ECACC), which are CD30 antigen-positive and HER2 antigen-negative, were cultured in RPMI 1640 (GIBCO) containing 10% fetal bovine serum (MP Biomedicals) (hereinafter, referred to as “culture medium A” in this test). In addition, SK-BR-3 cells (ATCC), which are CD30 antigen-negative and HER2 antigen-positive, were cultured in McCoy's 5A (GIBCO) containing 10% fetal bovine serum (MP Biomedicals) (hereinafter, referred to as “culture medium B” in this test). Karpas-299 cells and SK-BR-3 cells were prepared to be 2×10^6 cells/mL in culture medium A or culture medium B, and were added to a 96 well microplate for cell culturing in an amount of 50 μL for each well. After the addition, SK-BR-3 cells were cultured at 37 degree under 5% CO2 overnight. ADCs 4 times diluted with culture medium A or culture medium B in 8 stages were added to the microplate in an amount of 50 μL for each well, and Karpas-299 cells and SK-BR-3 cells were cultured at 37 degree under 5% CO2 for 4 days or 3 days, respectively. After culturing, the microplate was taken out from the incubator, and was left at rest at room temperature for 10 minutes. […] Using a microplate luminometer, luminescence was measured, thereby calculating the cell viability for each concentration of the ADC. The IC50 value was calculated in accordance with the method described in Test Example 1.

Karpas-299 cells [4] = assay: Cellular Toxicity Test (2) for ADCs, cell survival relative to brentuximab; assay type: cell-based, human; details: Karpas-299, 2000 ng/mL solution added, 4 days, relative to cells surviving brentuximab treatment
Procedure: Karpas-299 cells were prepared to be 2×10^6 cells/mL in culture medium A, and were added to a 96 well microplate for cell culturing in an amount of 50 μL for each well. Brentuximab or Example ADCs, the concentration of which was prepared to be 2000 ng/mL with culture medium A, was added to the microplate in an amount of 50 μL for each well, and cultured at 37 degree under 5% CO2 for 4 days. After culturing, the microplate was taken out from the incubator, and was left at rest at room temperature for 10 minutes. To each well, 50 μL of CellTiter-Glo Luminescent Cell Viability Assay (Promega) was added, and the resultant mixture was stirred. This mixture was incubated at a dark place for 20 minutes, and luminescence was measured using a microplate luminometer, thereby determining the percentage of the number of cells that survived upon the treatment with Example ADCs relative to the number of cells that survived upon the treatment with brentuximab.

HL-60 = assay: Cellular Toxicity Test (3) for ADCs; assay type: cell-based; details: HL-60, treatment with 333 nM of ADC
Procedure: In accordance with the method described in Test Example 3 or Test Example 7, cellular toxicities of Example ADCs were measured using the cell types shown in the following table. As an indicator for the cellular toxicity, IC50 or the cell survival rate upon the treatment with 333 nM of ADC was measured. However, for ADC 51, the cell survival rate upon the treatment with 26.6 nM of ADC51 was measured.

| Molecule | IC50 (Karpas-299 cells [1]) [nM] | Papp at 4 h [2] [×10⁻⁶ cm/s] | also measured |
| --- | --- | --- | --- |
| CN[C@H](C(=O)N[C@H](C(=O)N(C)[C@H](/C=C(\C)C(=O)NCCCCNC(=O)CCCCCN1C(=O)C=CC1=O)C(C)C)C(C)(C)C)C(C)(C)c1cn(C)c2ccccc12 [Comparative Example compound, reference compound] | 19.1 | 16.9 | cellular toxicity to Karpas-299 cells (in words) (Karpas-299 cells [1]): strong cellular toxicity; cellular toxicity to SK-BR-3 cells (in words) (SK-BR-3 cells): strong cellular toxicity; IC50 (SK-BR-3 cells): 162 nM |
| Comparative Example 1: Brentuximab, a CD30 antigen-specific antibody, no modifying agent, average DAR 0 | – | – | IC50 (Karpas-299 cells [3]): > 6.6 nM; Cell survival rate (%) (Karpas-299 cells [4]): 100% |
| C/C(=C\[C@H](C(C)C)N(C)C(=O)[C@@H](NC(=O)[C@H]1CCCCN1C(=O)CCN1C(=O)C=CC1=O)C(C)(C)C)C(=O)N[C@H](CCC(=O)O)C(=O)O [Example M29] | > 1000 | < 0.1 | – |
| CN[C@H](C(=O)N[C@H](C(=O)N(C)[C@H](/C=C(\C)C(=O)N[C@@H](CCC(=O)NCCN1C(=O)C=CC1=O)C(=O)O)C(C)C)C(C)(C)C)C(C)(C)c1cn(C)c2ccccc12 [Example M18] | 148 | < 0.1 | – |
| CN[C@H](C(=O)N[C@H](C(=O)N(C)[C@H](/C=C(\C)C(=O)N[C@H](CCC(=O)O)C(=O)NCCN1C(=O)C=CC1=O)C(C)C)C(C)(C)C)C(C)(C)c1cn(C)c2ccccc12 [Example M25] | 140 | < 0.1 | – |
| CN[C@H](C(=O)N[C@H](C(=O)N(C)[C@H](/C=C(\C)C(=O)N[C@H](CCC(=O)NCCN1C(=O)C=CC1=O)C(=O)O)C(C)C)C(C)(C)C)C(C)(C)c1cn(C)c2ccccc12 [Example M1, (3S,6S,9S,10E,14R)-6-tert-Butyl-14-(3-{[2-(2,5-dioxo-2,5-dihydro-1H-pyrrol-1-yl)ethyl]amino}-3-oxopropyl)-8,11-dimethyl-3-[2-(1-methyl-1H-indol-3-yl)propan-2-yl]-4,7,12-trioxo-9-(propan-2-yl)-2,5,8,13-tetraazapentadec-10-en-15-oic Acid] | 726 | < 0.1 | IC50 (SK-BR-3 cells): > 1000 nM |
| C/C(=C\[C@H](C(C)C)N(C)C(=O)[C@@H](NC(=O)[C@@H](NC(=O)CCCCCN1C(=O)C=CC1=O)C(C)(C)c1cn(C)c2ccccc12)C(C)(C)C)C(=O)N[C@H](CCC(=O)O)C(=O)O [Example M48] | > 1000 | 0.3 | – |
| CN[C@H](C(=O)N[C@H](C(=O)N(C)[C@H](/C=C(\C)C(=O)N[C@H](CCC(=O)NCCN1C(=O)C=CC1=O)C(=O)O)C(C)C)C(C)(C)C)C(C)(C)c1ccc(C(=O)O)cc1 [Example M36] | > 1000 | 0.6 | – |
| CN[C@H](C(=O)N[C@H](C(=O)N(C)[C@H](/C=C(\C)C(=O)N[C@H](CCC(=O)NCCN1C(=O)C=CC1=O)C(=O)O)C(C)C)C(C)(C)C)C(C)(C)c1cccc(Br)c1 [Example M44] | 9.2 | 6.8 | – |
| CN[C@H](C(=O)N[C@H](C(=O)N(C)[C@H](/C=C(\C)C(=O)N[C@H](CCC(=O)N[C@@H](CCCCNC(=O)CCN1C(=O)C=CC1=O)C(=O)O)C(=O)O)C(C)C)C(C)(C)C)C(C)(C)c1cn(C)c2ccc(F)cc12 [Example M26] | 80.1 | < 0.1 | – |
| CN[C@@H](C(=O)N[C@H](C(=O)N(C)[C@H](/C=C(\C)C(=O)N[C@H](CCC(=O)NCCN1C(=O)C=CC1=O)C(=O)O)C(C)C)C(C)(C)C)C(C)(C)c1cccc(Br)c1 [Example M45] | 189 | 4 | – |
| CN[C@H](C(=O)N[C@H](C(=O)N(C)[C@H](/C=C(\C)C(=O)N[C@@H](CCCCNC(=O)CCCN1C(=O)C=CC1=O)C(=O)O)C(C)C)C(C)(C)C)C(C)(C)c1cn(C)c2ccccc12 [Example M27] | 192 | < 0.1 | – |
| CN[C@H](C(=O)N[C@H](C(=O)N(C)[C@H](/C=C(\C)C(=O)NCCCC[C@@H](NC(=O)CCCN1C(=O)C=CC1=O)C(=O)O)C(C)C)C(C)(C)C)C(C)(C)c1ccccc1 [Example M28] | 50.8 | < 0.1 | – |
| CN[C@H](C(=O)N[C@H](C(=O)N(C)[C@H](/C=C(\C)C(=O)N[C@H](CCC(=O)NCCN1C(=O)C=CC1=O)C(=O)O)C(C)C)C(C)(C)C)C(C)(C)c1ccc2ccccc2c1 [Example M40] | 176 | < 0.1 | – |
| ADC54: ADC of Vadastuximab and M4, average DAR 5.3 (conjugate, chains of the INN, looked up, drug-linker M4, DAR 5.3) VH: QVQLVQSGAEVKKPGASVKVSCKASGYTFTNYDINWVRQAPGQGLEWIGWIYPGDGSTKYNEKFKAKATLTADTSTSTAYMELRSLRSDDTAVYYCASGYEDAMDYWGQGTTVTVSS VL: DIQMTQSPSSLSASVGDRVTINCKASQDINSYLSWFQQKPGKAPKTLIYRANRLVDGVPSRFSGSGSGQDYTLTISSLQPEDFATYYCLQYDEFPLTFGGGTKVEIK | – | – | Cell survival rate (%) (HL-60): 68% |
